# Source: patent US12473328
# Where two headings read alike, the source gives them in different places.
# Experiments:
# [1] = resin
# [2] = disulfide bond; 44-membered ring; resin; 3 steps
# [3] = crosslinker bond, 30-membered ring
# [4] = disulfide bond, 20-membered ring
substance,measurement,setting,value
H-VRVPGCAHCADSLY-NH2,"ring closure, conversion","[1]; crosslinker bond, 19-membered ring",99%
H-ACYNEFGCEDFYDICA-NH2,"ring closure, conversion",[1]; [3],99%
H-CRVPGDAHHADSLC-NH2,"ring closure, conversion","[1]; crosslinker bond, 49-membered ring",99%
same,"ring closure, conversion","[1]; disulfide bond, 44-membered ring",22%
same,"ring closure, crude yield",[2],22%
H-VRCPGAAHHADSLC-NH2,"ring closure, conversion","[1]; disulfide bond, 38-membered ring",99%
H-ACREGFLRCLHRPTVCNG-H2,"ring closure, conversion","[1]; crosslinker bond, 31-membered ring",99%
H-ACSWPARCLHQDLCA-NH2,"ring closure, conversion",[1]; [3],99%
H-CYFQNCPRG-NH2,"ring closure, conversion",[1]; [4],95%
H-KCNTATCATQRLANFLVHSSNFGPILPPTNVGSNTY-NH2,"ring closure, conversion",[1]; [4],99%
